Test results published in US3944557A, “Pyridinium salts” (Commonwealth Scientific & Industrial Research Organization, priority 1973, dated 1976).

Key:
[1] = test system: Monolinia fructicola; assay: Inhibition of spore germination of M. fructicola; type: cell-based; conditions: Monilinia fructicola; Table 7; read-out: 50% inhibition of spore germination (Monolinia fructicola spore germination)
Text: 50% inhibition of spore germination of M. fructicola

[2] = test system: Phytophthora cinnamomi; assay: Protection of lupin seedlings from infection by P. cinnamomi; type: in vivo; conditions: Table 7
Text: Protection of lupin seedlings from infection by […]

[3] = test system: Fusarium oxysporum; assay: Infection of tomato seedlings by F. oxysporum (soil application); type: in vivo; conditions: read-out: Protection of tomato seedlings from infection by F. oxysporum
Text: Infection of tomato seedlings by F. oxysporum
100% protection 8 kg/ha (soil application) ++
50% protection at 8 kg/ha (soil application) +

[4] = test system: Rhizoctonia solani; assay: Infection of cotton seedlings by Rh. solani (soil application); type: in vivo; conditions: Table 7, 16 kg/ha, read-out: Protection of cotton seedlings from infection by Rh. solani
Text: Infection of cotton seedlings by Rh. solani
100% protection at 16 kg/ha (soil application) ++
50% protection at 16 kg/ha (soil application) +

Compound | IC50 [1] | minimal effective concentration [2] | pest or weed control at 8000 g/ha [3] | pest or weed control at 16000 g/ha [4]
CCCCCCCNc1cc(N)[n+](CCCCCCC)c(Cl)c1C#N [Compound 13] | ≤ 5 µg/mL | ≤ 2 µg/mL | 50% | –
CCCCCCCCNc1cc(N)[n+](CCCCCCCC)c(Cl)c1C#N.[Cl-] [Compound 14, 2-amino-6-chloro-5-cyano-1-n-octyl-4-n-octylamino pyridinium chloride] | ≤ 5 µg/mL | ≤ 2 µg/mL | 50% | 100%
N#Cc1c(NCc2ccccc2)cc(N)[n+](Cc2ccccc2)c1Cl [Compound 17] | 5 to 50 µg/mL | 2 to 8 µg/mL | 50% | –
CNc1cc(N)[n+](C)c(NCc2ccco2)c1C#N [Compound 23] | – | > 8 µg/mL | 100% | –
CCCCCCCCCCCCNc1c(C#N)c(NC)cc(N)[n+]1C [Compound 27] | – | 30 µg/mL | – | 100%
CCCCNc1cc(N)[n+](CCCC)c(NCc2ccco2)c1C#N [Compound 36] | 5 to 50 µg/mL | 2 to 8 µg/mL | – | 50%
CCCCCCNc1cc(N)[n+](CCCCCC)c(NCCCC)c1C#N.[Cl-] [Compound 42, 2-amino-6-n-butylamino-5-cyano-1-n-hexyl-4-n-hexylamino pyridinium chloride] | ≤ 5 µg/mL | ≤ 2 µg/mL | – | –
CCCCCCCCNc1c(C#N)c(NCCCCCC)cc(N)[n+]1CCCCCC [Compound 44] | ≤ 5 µg/mL | ≤ 2 µg/mL | 50% | –
CCCCCCCCNc1cc(N)[n+](CCCCCCCC)c(N)c1C#N [Compound 46] | ≤ 5 µg/mL | ≤ 2 µg/mL | – | 50%
CC(C)Nc1cc(N)[n+](C(C)C)c(S(=O)(=O)[O-])c1C#N [Compound 59] | – | > 8 µg/mL | – | 100%
CCCCCCNc1c(Br)c(N)[n+](CCCCCC)c(Cl)c1C#N [Compound 67] | ≤ 5 µg/mL | 2 to 8 µg/mL | 50% | –
CCCCCCNc1cc(N)[n+](CCCCCC)c(Sc2ccccc2)c1C#N.[Cl-] [Compound 78, 2-amino-5-cyano-1-n-hexyl-4-n-hexylamino-6-phenylmercapto pyridinium chloride] | ≤ 5 µg/mL | ≤ 2 µg/mL | – | 50%
